Tests used:
[1] = tested on: BHK-21 cells (mitochondrial movements); assay: Nocodazole treatment, time-lapse live imaging of BHK-21 cells with MitoTracker dye and WFA-Verde; assay type: cell-based, hamster; conditions: 10 μM Nocodazole
Procedure: BHK-21 cells were cultured in glass bottom plates and treated with MitoTracker® dye alone or separately with 10 μM Nocodazole. […] Time-lapse images were collected every 5 seconds in each of the four treatment groups.

vimentin and GFAP = conditions: laser injured mice, day 7, 1 μM intraperitoneal, sacrificed 24 h later
From the text: Mice of both sexes were anesthetized and subjected to 4 equally spaced laser burns focused on the retinal pigment epithelium (RPE). Using the Meridian laser attached to Micron III retinal fundus microscope (Phoenix Research labs) we used strong injury (150 mW with 50 msec pulse) to promote retinal gliosis with CNV.
The mouse imaging system (Micron III, Phoenix Research Labs, CA) provided with an image-guided Meridian Merilas 532 nm (Nd:YVO) laser was employed. Using the Diode laser 625-645 nm as an aiming beam the continuous wave, KTP frequency doubled Nd:YVO 532 nm laser was employed to deliver laser injuries in anesthetized mice. Here four (150 mW; 10-μm diameter, 50 msec duration) laser shots equally spaced around the optic nerve were delivered to disrupt the RPE. […] Mice were sacrificed 24 h later and eyes enucleated for tissue sectioning and antibody staining to vimentin and GFAP.

soluble vimentin = target: T1, soluble vimentin (Mesocricetus auratus, UniProt P02544); assay: Dynamic movement of vimentin structures, live imaging of BHK-21 cells; assay type: cell-based, hamster; conditions: 250 nM, 5 min, SF medium, images at 5 sec intervals
T1 construct: BHK-21 cells were plated in glass bottom culture plates for 18 h to promote spreading; endogenous in cells; host or cells: BHK-21

[2] = target: T2, vimentin (Muller glial filaments) (Mus musculus, UniProt P20152); assay: In vivo delivery of probe to non injured mice, retina cryosections; conditions: 1 μM intraperitoneal, eyes enucleated after 24 h, FITC channel
T2 construct: from tissue; host or cells: mouse retina (in vivo, cryosections)
From the text: Cryosections of the eye were subjected to fixation and subsequently stained with anti-vimentin antibody (V9) to mark Muller glial filaments.

[3] = target: vimentin in corneal myofibroblasts (Mus musculus, UniProt P20152)
Procedure: Alkali injury to the cornea causes blindness due to the development of corneal fibrosis from overexpression of IF proteins in resident myofibroblasts. This model is extensively employed to investigate corneal fibrosis and role of IF proteins.
Thus, anesthetized mice were injured with alkali by application of 0.15N NaOH for 1 min to the cornea, eyes was extensively and the corneal epithelium gently removed. During the process of wound healing the resident keratocytes become activated into wound fibroblasts and subsequently into myofibroblasts to overexpress both vimentin and desmin, the two type III IFs in the cornea. Thus, heightened expression of these IF targets compared to uninjured corneas, the latter expressing very low levels of vimentin and no desmin, provided the rationale to compare uninjured mice. […] Mice were sacrificed after 1 h, eyes enucleated and cryosections were obtained.

[4] = target: T3, vimentin associated with mitochondria (Mesocricetus auratus, UniProt P02544); assay: Co-staining with MitoTracker dye in live BHK-21 cells; assay type: cell-based, hamster; conditions: 250 nM, 5 mins, serum-free medium
T3 construct: endogenous in cells; host or cells: BHK-21
Procedure: BHK-21 cells were plated overnight and prior to staining placed in serum-free medium. […] Cells were washed and directly imaged live at dual wavelengths.

[5] = tested on: mCherry-vimentin (soluble vimentin); assay: Live cell target detection in BHK-21 cells transfected with pmCherry-vimentin-N-18; assay type: cell-based, hamster; conditions: 250 nM, 5 min, early spreading cells
From the text: Soluble vimentin is a broad definition for the biochemical properties of vimentin forms that are extracted in low salt buffers (composed of tetramers, short oligomers, unit length filaments etc.). As such, these soluble vimentin forms are more dynamic structures. We employed a genetic approach to introduce a hybrid mCherry-vimentin construct to express vimentin as a fusion protein with the red fluorescent protein mCherry.
BHK-21 cells were transiently transfected with pmCherry-vimentin-N-18 plasmid (Adgene, MA) using lipofectamine, according to vendor instructions. Cells were trypsinized and replated in glass bottom culture plates (MatTek, MA) for 1 h in complete DMEM medium. […] Cells were immediately imaged live by epifluorescence microscopy, without fixation. […] Asterisks mark the position of the nucleus.

[6] = tested on: vimentin (p-Ser38Vimentin)
From the text: Cells were fixed, permeabilized, and prepared for immunohystochemistry (IHC) analysis.

[7] = tested on: human vimentin-cherry hybrid; assay: Time-lapse imaging of BHK-21 cells expressing polymerized mCherry-vimentin; assay type: cell-based, hamster; conditions: 250 nM, 5 minutes, serum-free medium, BHK-21 cells with mCherry-vimentin, replated 18 h
Procedure: Transfection of human vimentin-cherry hybrid plasmid into fibroblasts and examination of polymerized vimentin structures under live cell imaging experiments identify numerous vimentin filaments that show some common, and yet, other distinct staining from the WFA-Verde-labeled structures. BHK-21 cells were transiently transfected with pmCherry-Vimentin-N-18 plasmid (Adgene, MA) using lipofectamine. Cells were cultured to establish the expression of plasmid and then trypsinzed and replated in glass culture plates for 18 h. […] Images at the starting point (T1), mid-point (T2) and at end of 3 minutes (T3).

[8] = target: T4, soluble vimentin species bound to motile mitochondrial species (Mesocricetus auratus, UniProt P02544); assay: Motility quantification of WFA-Verde-labeled particles in BHK-21 cells (FIJI/Image J); assay type: cell-based, hamster; conditions: 250 nM, images at 5 sec intervals
T4 construct: BHK-21 cells were plated in glass bottom culture plates for 18 h to promote spreading; endogenous in cells; host or cells: BHK-21
T4 sequence (P02544 2-465 limits assumed): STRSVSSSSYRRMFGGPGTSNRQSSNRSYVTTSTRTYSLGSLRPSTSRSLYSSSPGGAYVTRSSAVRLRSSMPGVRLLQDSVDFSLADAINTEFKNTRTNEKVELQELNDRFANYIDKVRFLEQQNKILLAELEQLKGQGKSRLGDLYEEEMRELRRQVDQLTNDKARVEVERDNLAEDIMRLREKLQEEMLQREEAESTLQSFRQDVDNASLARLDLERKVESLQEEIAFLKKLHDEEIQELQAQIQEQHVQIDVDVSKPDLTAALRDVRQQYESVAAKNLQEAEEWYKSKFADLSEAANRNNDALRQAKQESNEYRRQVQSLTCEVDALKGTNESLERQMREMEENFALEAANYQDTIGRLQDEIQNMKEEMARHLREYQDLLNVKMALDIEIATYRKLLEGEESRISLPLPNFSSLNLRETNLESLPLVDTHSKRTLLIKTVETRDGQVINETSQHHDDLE

Chain of vimentin in corneal myofibroblasts (P20152 2-466 limits assumed): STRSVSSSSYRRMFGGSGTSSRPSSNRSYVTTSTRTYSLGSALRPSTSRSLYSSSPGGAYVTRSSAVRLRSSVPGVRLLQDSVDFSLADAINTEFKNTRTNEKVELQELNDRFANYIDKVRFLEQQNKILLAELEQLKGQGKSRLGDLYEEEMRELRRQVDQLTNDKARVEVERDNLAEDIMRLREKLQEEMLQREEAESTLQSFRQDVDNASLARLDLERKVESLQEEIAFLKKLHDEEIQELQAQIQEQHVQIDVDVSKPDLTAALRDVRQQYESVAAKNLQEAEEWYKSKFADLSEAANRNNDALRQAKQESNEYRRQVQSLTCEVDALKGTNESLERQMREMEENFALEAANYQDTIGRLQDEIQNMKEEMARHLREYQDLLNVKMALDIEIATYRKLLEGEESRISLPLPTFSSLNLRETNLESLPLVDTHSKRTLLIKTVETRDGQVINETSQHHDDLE
T2 sequence (P20152 2-466 limits assumed): as above
Chain of mCherry-vimentin (soluble vimentin) (P08670 2-466 limits assumed): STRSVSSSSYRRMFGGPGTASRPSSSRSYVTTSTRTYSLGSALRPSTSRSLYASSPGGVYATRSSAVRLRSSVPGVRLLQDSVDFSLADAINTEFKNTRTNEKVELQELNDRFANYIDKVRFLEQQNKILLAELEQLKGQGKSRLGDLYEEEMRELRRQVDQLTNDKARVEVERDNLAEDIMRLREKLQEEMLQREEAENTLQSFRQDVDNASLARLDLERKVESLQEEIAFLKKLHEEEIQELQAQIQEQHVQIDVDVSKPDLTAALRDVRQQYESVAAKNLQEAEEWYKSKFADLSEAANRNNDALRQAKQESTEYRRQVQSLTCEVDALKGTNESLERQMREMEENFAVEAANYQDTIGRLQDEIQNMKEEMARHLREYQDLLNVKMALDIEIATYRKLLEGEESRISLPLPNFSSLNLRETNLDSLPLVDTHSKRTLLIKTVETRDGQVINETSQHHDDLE
Chain of human vimentin-cherry hybrid (P08670 2-466 limits assumed): as above
T3 sequence (P02544 2-465 limits assumed): as the sequence (P02544 2-465 limits assumed) above
T1 sequence (P02544 2-465 limits assumed): as above

| Compound | effect on movement of filaments ([1]; time-lapse every 5 seconds) | labeling of Muller glia at laser lesion (vimentin and GFAP) | overlap of WFA-Verde and MitoTracker staining under nocodazole [1] | speed of WFA-Verde labeled dot-like structure (soluble vimentin) [μm/sec] | incorporation of probe into vimentin in non-gliotic retina [2] | overlap between vimentin antibody staining and probe binding ([3]; alkali injured corneas, majority of labeled cells) | probe staining of corneas from injured eyes ([3]; alkali injured mice, day 14, intraperitoneal, sacrificed after 1 h) | metabolic conversion in vivo ([3]; mouse, in vivo, ip) | time to reach the target organ after systemic delivery ([3]; mouse, in vivo, ip) [h] | probe staining of non-injured corneas ([3]; non-injured mice, intraperitoneal, sacrificed after 1 h, corneal stroma) | overlap of probe-stained vimentin structures with MitoTracker dye [4] | co-localization with Vim-Cherry [5] | labeling of vimentin structures in cell cytoplasm ([6]; 3.5 μM, 1 h, rabbit corneal fibroblast cells) | co-localization of probe with p-Ser38Vimentin ([6]; 3.5 μM, 1 h, rabbit corneal fibroblast cells, fixed, anti-pSer38Vimentin antibody) | effect on cytoskeleton ([6]; short exposure to higher dose (3.5 μM, 1 h), well spread cells) | staining of vimentin structures at low dose [7] | rate of movement of majority of motile WFA-Verde-labeled particles [8] [micrometer/second] |
| --- | --- | --- | --- | --- | --- | --- | --- | --- | --- | --- | --- | --- | --- | --- | --- | --- | --- |
| COC(=O)Nc1nc2ccc(C(=O)c3cccs3)cc2[nH]1 [Nocodazole, nocodazole, reference compound] | causes filaments to be arrested in movements |  |  |  |  |  |  |  |  |  |  |  |  |  |  |  |  |
| CC1=C(COC(=O)CNC(=O)CCCCCNC(=O)COc2ccc(C3=[N+]4C(=Cc5ccc(-c6cccs6)n5[B-]4(F)F)C=C3)cc2)C(=O)OC(C(C)C2CCC3C4CC5OC56C(O)C=CC(=O)C6(C)C4CCC23C)C1 (stereo not drawn) [WFA-Rosa, Withaferin A-BODIPY-TR-X] |  | showed a similar pattern illuminating Muller glia |  |  |  |  |  |  |  |  |  |  |  |  |  |  |  |
| Withaferin A-BODIPY-FL [WFA-Verde] |  | labeled the Muller glia extensively | extensive overlap | ~0.5 | minimal incorporation | extensive overlap | abundance of WFA-Verde binding to corneal myofibroblasts | likely also not metabolically converted | ≤ 1 | very low level of background staining | extensive overlap | shows co-localization with Vim-Cherry | does label both soluble and vimentin structures throughout the cell cytoplasm | extensive co-localization | did not dramatically alter the cytoskeleton | does not stain to all vimentin structures | ~0.01 |

From patent publication US10690683B2, “Methods of use for intermediate filament protein probes” (University of Connecticut, priority 2016, dated 2020)
